Measurements as given in patent publication US6413948B1, “Pharmaceutical compositions and methods of effecting a neuronal activity in an animal using naaladase inhibitors” (Guilford Pharmaceuticals Inc., priority 1996, dated 2002).

Experiments:
mice = assay: In vivo toxicity of NAALADase inhibitors in mice
Text: The mice were subsequently observed two times per day for 5 consecutive days.

cortical cell cultures = assay: In vitro assay of NAALADase inhibitors on ischemia (potassium cyanide and 2-deoxyglucose, LDH release); type: cell-based, rats
Protocol: The methods for this assay are described in detail below.
Dissociated cortical cell cultures are prepared using the papain-dissociation method of Heuttner and Baughman (1986) as modified by Murphy and Baraban (1990). […] Fetuses of embryonic day 17 are removed from timed pregnancy rats (Harlan Sprague Dawley). The cortex is rapidly dissected out in Dulbecco's phosphate-buffered saline, stripped of meninges, and incubated in a papain solution for 15 minutes at 37° C. The tissue is then mechanically triturated and pelleted at 500 g (1000-2000 rpm on swinging bucket Beckman). The pellet is resuspended in a DNAase solution, triturated with a 10 ml pipette ×15-20, layered over a “10×10” solution containing albumin and trypsin inhibitor (see TABLE VII for an example of a “10×10” solution), repelleted, and resuspended in a plating medium containing 10% fetal bovine serum (HyClone A-1111-L), 5% heat-inactivated Equine serum (HyClone A-3311-L), and 84% modified Earle's basal medium (MEM) (Gibco 51200-020) with high glucose (4.5 g/L), and 1 g/L NaHCO3. Each 24-well plate is pretreated with poly-D-lysine (0.5 ml/well of 10 μg/ml) for 1 h and rinsed with water before plating. Cultures are plated at 2.5×10^6 cells/ml with each well of a 24 well plate receiving 500 μl/well. Alternatively, 35 mm dishes can be plated at 2 ml/dish, 6 well plates at 2 ml/well, or 12 well plates at 1 ml/well. After plating, 50% of the medium is changed every 3-4 days with growth serum containing 5% heat-inactivated Equine serum (HyClone A3111-L), 95% modified Earle's basal medium (MEM)(Gibco 51200-020), and 1% L-Glutamine (Gibco 25030-081). Experiments are performed after 21 days in cultures. Cultures are maintained in a 5% CO2 atmosphere at 37° C.
Twenty-one to twenty-four days following the initial cortical cell plating, the experiment is performed. The cultures are washed three times in HEPES buffered saline solution containing no phosphate. […] At the end of 24 hours, the cultures are analyzed for release of the cytosolic enzyme lactate dehydrogenase (LDH), a standard measure of cell lysis. LDH measurements are performed according to the method of Koh and Choi, J. Neuroscience Methods (1987).
Release of the cytosolic enzyme lactate dehydrogenase (LDH), a standard measure of cell lysis, is used to quantify injury (Koh and Choi, 1987). LDH-activity measurements are normalized to control for variability between culture preparations (Koh and Choi, 1987). […] This control measurement is subtracted from each experimental point. […] Only main effects of NAALADase inhibitors are considered; interactions between dose and condition are not examined statistically.

[1] = system: SHRSP rats which had sustained middle cerebral artery occlusion (MCAO); assay: In vivo assay on cortical injury following MCAO in SHRSP rats
Text: A colony of SHRSP rats is bred at Johns Hopkins School of Medicine from three pairs of male and female rats obtained from the National Institutes of Health (Laboratory, Sciences Section, Veterinary Resources Program, National Center for Research Resources, Bethesda, Md.). All rats are kept in a virus-free environment and maintained on regular diet (NIH 31, Zeigler Bros, Inc.) with water ad libitum. All groups of rats are allowed to eat and drink water until the morning of the experiment.
Transient occlusion of the middle cerebral artery (MCA) is induced by advancing a 4-0 surgical nylon suture into the internal carotid artery (ICA) to block the origin of the MCA (Koizumi, 1986; Longa, 1989; Chen, 1992). The rats are anesthetized with 4% halothane, and maintained with 1.0% to 1.5% halothane in air enriched oxygen using a face mask. Rectal temperature is maintained at 37.0±0.5° C. throughout the surgical procedure using a heating lamp. The right femoral artery is cannulated for measuring blood gases (pH, oxygen tension [PO2], carbon dioxide tension [PCO2]) before and during ischemia, for monitoring blood pressure during the surgery. The right common carotid artery (CCA) is exposed through a midline incision; a self-retraining retractor is positioned between the digastric and mastoid muscles, and the omohyoid muscle is divided. The right external carotid artery (ECA) is dissected and ligated. The occipital artery branch of the ECA is then isolated and coagulated. Next, the right internal carotid artery (ICA) is isolated until the pterygopalatine artery is exposed, and carefully separated from the adjacent vagus nerve. The pterygopalatine artery is ligated with 4-0 silk suture close to its origin.
After the CCA is ligated with 4-0 silk suture, a 4-0 silk suture to prevent bleeding from a puncture site, through which a 2.5 cm length of 4-0 monofilament nylon suture (Ethilon), its tip rounded by heating near a electric cautery, is introduced into the ICA lumen. A 6-0 silk suture is tightened around the intraluminal nylon suture at the bifurcation to prevent bleeding, and the stretched sutures at the CCA and the ICA are released. The nylon suture is then gently advanced as far as 20 mm.
Anesthesia is terminated after 10 minutes of MCA occlusion in both groups, and the rats were awakened 5 minutes thereafter. After 2 hours of ischemia, anesthesia is reanesthetized, and reperfusion is performed by withdrawing the intraluminal nylon suture until the distal tip became visible at the origin of the ICA.
Arterial pH and PaCO2, and partial pressure of oxygen (PaO2) are measured with a self-calibrating Radiometer electrode system (ABL 3; Copenhagen, Denmark). Hemoglobin and arterial oxygen content are measured with a hemoximeter (Radiometer, Model OSM3; Copenhagen, Denmark). Blood glucose is measured with a glucose analyzer (model 2300A, Yellow Springs Instruments, Yellow Springs, Ohio).
Each group is exposed to 2 hours of right MCA occlusion and 22 hours of reperfusion. All variables but the rectal temperature are measured at baseline, at 15 minutes and 45 minutes of right MCA occlusion. The rectal temperature is measured at baseline, at 0 and 15 min of MCA occlusion, and at 0 and 22 hours of reperfusion.

[2] = system: stroke-induced rise in brain glutamate levels; assay: In vivo assay on stroke-induced rise in brain glutamate levels (microdialysis); design: species or system Sprague Dawley rats; conditions: rat
Text: Male Sprague Dawley rats (270-330 g, n=5-6 per group) were implanted with concentric microdialysis probes similar to previously described procedures (Britton et al., J. Neurochem., Vol. 67, pp. 324-329 (1996)). In brief, under halothane anaesthesia, probes (constructed in-house using Cuprophane capillary membrane; 10K mw cut off; 2 mm dialyzing length) were implanted into the frontal cortex (AP=+3.5; ML=3; DIV=3), caudate nucleus (AP=0; ML=3; DV=6.6), and parietal cortex (AP=−2; ML=5; DV=3) (coordinates in mm relative to bregma and dura, respectively), regions believed to represent core and penumbral areas of ischemia-induced injury. Glutamate levels in dialysate were determined using precolumn o-phthaldialdehyde derivatization, followed by HPLC with fluorometric detection.
Following a 60 minute stabilization period, dialysis samples were collected every 20 minutes. After collecting 3 baseline samples, the rats were anaesthetized with halothane and subjected to temporary ischemia using the filament method of MCAO (Britton et al., Life Sciences, Vol. 60, No. 20, pp. 1729-1740 (1997)). In brief, the right external carotid artery (ECA) was exposed and its branches coagulated. A 3-0 monofilament nylon suture was introduced into the internal carotid artery via an arteriotomy in the ECA and advanced until it lodged in the proximal region of the anterior cerebral artery, thus occluding the origin of the MCA. The endovascular suture was retracted to allow reperfusion 2 hours after occlusion.
Body temperature was maintained normothermic throughout stroke surgery and reperfusion procedures. […] Dialysis samples were collected every 20 minutes from unanesthetized rats.

[3] = system: mouse sciatic nerve following cryolesion; assay: In vivo assay on myelin formation following sciatic nerve cryolesion; design: species or system mice; conditions: silicone implants, approximately 2.5 μg/day, 15 days after surgery
Protocol: Cryolesion of the mouse sciatic nerve was performed according to Koenig et al., Science, Vol. 268, pp. 1500-1503 (June 1995). In brief, each mouse was anesthetized and its sciatic nerve was exposed in the upper thigh and cryolesioned using a copper cryode (diameter=0.5 mm) that was dipped in liquid nitrogen and repeatedly applied to the upper part of the nerve. The extent of the lesion was approximately 1 mm.
Fifteen days after surgery, the mice were sacrificed and their sciatic nerve segments were collected and processed for light microscopy and TEM analysis. Randomly chosen fields 2-3 mm distal to the lesion were qualitatively analyzed by light microscopy using 1-micrometer-thick toluidine blue stained cross sections and photographic images were captured.

[4] = system: spinal cord organotypic cultures; assay: Spinal cord culture model of ALS (THA toxicity, ChAT activity); type: cell-based, rats
Protocol: Organotypic cultures were prepared from lumbar spinal cord of 8 day old rats, as described by Rothstein et al., J. Neurochem., Vol. 65, No. 2 (1995), and Rothstein et al., Proc. Natl. Acad. Sci. USA, Vol. 90, pp. 6591-6595 (July 1993). In brief, lumbar spinal cords were removed and sliced into 300 […] sections, and five slices were placed on Millipore CM semipermeable 30-mm-diameter membrane inserts. The inserts were placed on 1 ml of culture medium in 35-mm-diameter culture wells. Culture medium consisted of 50% minimal essential medium and phosphate-free HEPES (25 mM), 25% heat-inactivated horse serum, and 25% Hanks' balanced salt solution (GIBCO) supplemented with D-glucose (25.6 mg/ml) and glutamine (2 mM), at a final pH of 7.2. Antibiotic and antifungal agents were not used. Cultures were incubated at 37° C. in 5% CO2 containing humidified environment (Forma Scientific). Culture medium, along with any added pharmacological agents, was changed twice weekly.
Drugs were incubated for an additional 13 to 20 days with the 100 μM THA. At the end of this period, cultures were collected assayed for ChAT activity as described below.
To determine choline acetyltransferase (ChAT) activity, the spinal cord tissues in each dish (five slices) were pooled and frozen (−75° C.) until assay. ChAT activity was measured radiometrically by described methods using [^3H] acetyl-CoA (Amersham; Fonnum, 1975). Protein content of tissue homogenate was determined by a Coomassi Protein Assay kit (Pierce, Rockford, Ill.).

[5] = 10 mg/kg followed by 2 mg/kg/hr for 1 hour
[6] = 100 mg/kg followed by 20 mg/kg/hr for one hour

## O=C(O)CCC(CP(=O)(O)O)C(=O)O (centres unmarked) [2-(phosphonomethyl)pentanedioic acid]
mice; 1 to 500 mg/kg, observed 5 days
  toxicity to mice (in words): non-toxic to mice
mice; dose 1 mg/kg
  Survival Rate After 5 days (%): 100%
mice; dose 5 mg/kg
  Survival Rate After 5 days (%): 100%
mice; dose 10 mg/kg
  Survival Rate After 5 days (%): 100%
mice; dose 30 mg/kg
  Survival Rate After 5 days (%): 100%
mice; dose 100 mg/kg
  Survival Rate After 5 days (%): 100%
mice; dose 300 mg/kg
  Survival Rate After 5 days (%): 100%
mice; dose 500 mg/kg
  Survival Rate After 5 days (%): 66.7%
Cortical cell cultures; ischemic insult, 100 pM
  % Toxicity: 66.57 ± 4.38 (n = 5) %
Cortical cell cultures; ischemic insult, 1 nM
  % Toxicity: 42.31 ± 9.34 (n = 5) %
Cortical cell cultures; ischemic insult, 10 nM
  % Toxicity: 33.08 ± 9.62 (n = 5) %
Cortical cell cultures; ischemic insult, 100 nM
  % Toxicity: 30.23 ± 9.43 (n = 5) %
Cortical cell cultures; ischemic insult, 1 μM
  % Toxicity: 8.56 ± 8.22 (n = 5) %
Cortical cell cultures; time of administration: Delayed 30 Minutes
  % Toxicity: 31.49%
Cortical cell cultures; time of administration: Exposure & Recovery
  % Toxicity: 2.54%
Cortical cell cultures; time of administration: Recovery Only
  % Toxicity: 9.03%
[1]; [5]
  Cortical Injury Volume (% injury) ± S.E.M.: 29.14 ± 7.68 (n = 10) % injury
  Cortical Injury Volume (mm^3) ± S.E.M.: 135.00 ± 32.18 (n = 10) mm^3
  Cortical Protection (% protection): 27%
[1]; [6]
  Cortical Injury Volume (% injury) ± S.E.M.: 13.98 ± 6.64 (n = 10) % injury
  Cortical Injury Volume (mm^3) ± S.E.M.: 65.23 ± 32.18 (n = 10) mm^3
  Cortical Protection (% protection): 65%
[2]
  concurrent glutamate changes in the parietal cortex: completely prevented
  glutamate in the frontal cortex: no subsequent difference
  stroke-induced extracellular glutamate increases in the striatum: significantly attenuated
[3]
  # of myelinated lamellae (ave. + SEM): 16.53 ± 0.65
  % increase of myelinated lamellae over vehicle: 20%
[4]; Table XII, THA (100 μM) and 1 nM, 14 days
  ChAT Activity (% of Control): −23.9 ± 18.6 % of Control
[4]; Table XII, THA (100 μM) and 10 nM, 14 days
  ChAT Activity (% of Control): 23.1 ± 12.5 % of Control
[4]; Table XII, THA (100 μM) and 100 nM, 14 days
  ChAT Activity (% of Control): 87.5 ± 21.7 % of Control
[4]; Table XII, THA (100 μM) and 1 μM, 14 days
  ChAT Activity (% of Control): 187.7 ± 32.8 % of Control
[4]; Table XII, THA (100 μM) and 10 μM, 14 days
  ChAT Activity (% of Control): 128.7 ± 17.2 % of Control
[4]; co-incubation with THA, 100 nM-10 μM
  protection of the cultures from THA toxicity (in words): significantly protected
[4]; compound alone
  ChAT Activity (% of Control): 108 ± 18.4 % of Control
[4]; compound and THA
  ChAT Activity (% of Control): 121 + 18.8 % of Control
